The values below come from ChEMBL document CHEMBL1136607, “Novel thrombin inhibitors incorporating non-basic partially saturated heterobicyclic P1-arginine mimetics” (Bioorg Med Chem Lett, 2003).

A word on the Ki: it is the dissociation constant of the complex between target and ligand, obtained from inhibition or displacement. Read a low Ki as tighter binding.

Assay [1] concerns the target Coagulation factor X (Homo sapiens, UniProt P00742). Briefly: In vitro inhibitory activity against Factor Xa.
Assay [2] has as its target Prothrombin (Homo sapiens, UniProt P00734). Briefly: In vitro inhibitory activity against Thrombin.
Assay [3] concerns the target Serine protease 1 (Homo sapiens, UniProt P07477). The experiment in a line: In vitro inhibitory activity against Trypsin.
In assay [4] the target is Thrombin & trypsin (Homo sapiens) (UniProt P00734+P07477+P07478+P35030). The experiment in a line: Selectivity ratio of thrombin to trypsin. The class given is protein assay.
Assay [5] is filed under the species Homo sapiens. The experiment in a line: Concentration required to double the thrombin time in human plasma (TT). The class given is functional, cell-free.
The species named for assay [6] is Homo sapiens. The experiment in a line: Concentration required to double the activated partial thromboplastin time in human plasma (APTT). The class given is functional, cell-free.
For assay [7], the species on record is Homo sapiens. Briefly: Concentration required to double the […] prothrombin time in human plasma (PT). The class given is functional, cell-free.

Serine protease 1, sequence (P07477 whole entry): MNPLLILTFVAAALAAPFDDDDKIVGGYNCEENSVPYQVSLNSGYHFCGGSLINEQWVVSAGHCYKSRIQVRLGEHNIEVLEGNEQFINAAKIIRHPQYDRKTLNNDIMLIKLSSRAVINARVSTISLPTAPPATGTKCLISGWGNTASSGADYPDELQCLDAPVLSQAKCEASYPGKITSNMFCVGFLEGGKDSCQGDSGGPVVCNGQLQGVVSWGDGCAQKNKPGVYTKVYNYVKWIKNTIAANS
Coagulation factor X, sequence (P00742 41-179 limits assumed): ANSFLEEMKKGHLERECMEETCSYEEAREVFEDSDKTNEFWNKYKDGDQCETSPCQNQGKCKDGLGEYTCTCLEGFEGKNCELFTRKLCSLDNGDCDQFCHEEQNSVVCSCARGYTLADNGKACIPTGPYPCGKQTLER
Coagulation factor X, sequence (P00742 235-488 limits assumed): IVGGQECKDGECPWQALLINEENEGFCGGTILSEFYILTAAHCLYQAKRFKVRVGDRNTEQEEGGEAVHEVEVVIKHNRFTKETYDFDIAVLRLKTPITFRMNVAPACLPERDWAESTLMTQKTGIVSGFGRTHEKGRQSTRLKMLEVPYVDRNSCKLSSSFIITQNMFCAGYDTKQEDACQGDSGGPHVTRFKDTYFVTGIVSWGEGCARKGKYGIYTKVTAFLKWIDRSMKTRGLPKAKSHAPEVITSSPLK

With `Nc1ncc2c(n1)CCC(CNC(=O)[C@@H]1CCCN1C(=O)[C@@H](CC1CCCCC1)NS(=O)(=O)Cc1ccccc1)C2` (stereo partly drawn), the Ki is more than 75.4 µM in assay [1], more than 35.1 µM in assay [2] and more than 68.3 µM in assay [3].

For the compound `O=C(NC1CCc2n[nH]cc2C1)[C@@H]1CCCN1C(=O)[C@@H](CC1CCCCC1)NS(=O)(=O)Cc1ccccc1` (stereo partly drawn), the results for the inhibition constant Ki in assay [1], in assay [2] and in assay [3] were more than 75.4 µM, 5.38 µM and more than 68.3 µM, respectively. Also, the Ratio in assay [4] is more than 13.

Consider `O=C(NCC1CCc2n[nH]cc2C1)[C@@H]1CCCN1C(=O)[C@@H](CC1CCCCC1)NS(=O)(=O)Cc1ccccc1` (stereo partly drawn), for which the Concentration in assay [5] worked out at 11 µM; in assay [6] it was 42.3 µM; in assay [7], 78.3 µM. The Ki in assay [1] was more than 75.4 µM; in assay [3] it was more than 68.3 µM. In addition, the Ratio in assay [4] is more than 478.

For the compound `Cn1cc2c(n1)CCC(NC(=O)[C@@H]1CCCN1C(=O)[C@@H](CC1CCCCC1)NS(=O)(=O)Cc1ccccc1)C2` (stereo partly drawn), in assay [3], affinity was put at a Ki of 730 µM.

On to `CC(C)(C)OC(=O)N[C@H](Cc1ccc(Cl)c(Cl)c1)C(=O)N1CCC[C@H]1C(=O)NCC1CCc2n[nH]cc2C1` (stereo partly drawn), for which the Ki in assay [1] was more than 75.4 µM; in assay [2], 3.33 µM; in assay [3] it was more than 68.3 µM. In addition, the Ratio in assay [4] is more than 21.

Turning to `N[C@@H](C(=O)N1CCC[C@H]1C(=O)NCC1CCc2n[nH]cc2C1)C(c1ccccc1)c1ccccc1` (stereo partly drawn), the Ki in assay [1] was determined as 82.1 µM; in assay [3] it was 217 µM.

On to `O=C(NCC1CCc2ncncc2C1)[C@@H]1CCCN1C(=O)[C@@H](CC1CCCCC1)NS(=O)(=O)Cc1ccccc1` (stereo partly drawn), for which the figures for the inhibition constant (Ki) in assay [1] and in assay [3] were 111 µM and 342 µM, respectively.

For the compound `O=C(O)CN[C@H](CC1CCCCC1)C(=O)N1CCC[C@H]1C(=O)NCC1CCc2n[nH]cc2C1` (stereo partly drawn), the values for the Concentration in assay [5], in assay [6] and in assay [7] were 4.9 µM, 28 µM and 55.3 µM, respectively. For the same compound, the results for the Ki in assay [1] and in assay [3] were 84.8 µM and 19.9 µM, respectively. In addition, the Ratio in assay [4] came out at 71.

As to `CC(C)(C)OC(=O)N[C@H](Cc1ccc(Cl)c(Cl)c1)C(=O)N1CCC[C@H]1C(=O)NCC1CCc2nc(N)ncc2C1` (stereo partly drawn), the inhibitory constant (Ki) in assay [1] was more than 75.4 µM; in assay [2] it was more than 35.1 µM; in assay [3], more than 68.3 µM.

Turning to `O=C(NC1CCc2c[nH]cc2C1)[C@@H]1CCCN1C(=O)[C@@H](CC1CCCCC1)NS(=O)(=O)Cc1ccccc1` (stereo partly drawn), the inhibition constant (Ki) stood at 27.3 µM in assay [2] and 416 µM in assay [3]. In addition, the Ratio in assay [4] was 15.

Turning to `N[C@H](Cc1ccc(Cl)c(Cl)c1)C(=O)N1CCC[C@H]1C(=O)NCC1CCc2n[nH]cc2C1` (stereo partly drawn), the figures for the inhibitory constant (Ki) in assay [1], in assay [2] and in assay [3] were more than 75.4 µM, 0.69 µM and more than 68.3 µM, respectively. In addition, the Ratio in assay [4] was more than 99.

Turning to `Nc1ncc2c(n1)CCC(NC(=O)[C@@H]1CCCN1C(=O)[C@@H](CC1CCCCC1)NS(=O)(=O)Cc1ccccc1)C2` (stereo partly drawn), the inhibition constant Ki was more than 75.4 µM in assay [1], more than 35.1 µM in assay [2] and more than 68.3 µM in assay [3].

For the compound `CC(C)(C)OC(=O)N[C@@H](C(=O)N1CCC[C@H]1C(=O)NCC1CCc2n[nH]cc2C1)C(c1ccccc1)c1ccccc1` (stereo partly drawn), the Concentration stood at 29.2 µM in assay [5], 81 µM in assay [6] and 105 µM in assay [7]. Also, the inhibitory constant (Ki) in assay [1] came out at 85.2 µM; in assay [2], 0.53 µM.

Take `Nc1ncc2c(n1)CCC(CNC(=O)[C@@H]1CCCN1C(=O)[C@H](N)Cc1ccc(Cl)c(Cl)c1)C2` (stereo partly drawn): the inhibition constant (Ki) in assay [1] was more than 75.4 µM; in assay [2], more than 35.1 µM; in assay [3], more than 68.3 µM.

Take `Nc1ncc2c(n1)CCC(CNC(=O)[C@@H]1CCCN1C(=O)[C@H](N)C(c1ccccc1)c1ccccc1)C2` (stereo partly drawn): the Ki worked out at 57.6 µM in assay [1], 12.9 µM in assay [2] and 409 µM in assay [3]. Moreover, the Ratio in assay [4] stood at 32.
